# Laboratory results reported in US9233961B2, “Compounds and compositions for the treatment of parasitic diseases” (Novartis AG, priority 2013, dated 2016).
# Like-named read-outs stand apart in the source and are kept apart here.
# Tests used:
# [1] = test system: L. donovani HU3 strain in mouse peritoneal macrophages; assay: Assay for proliferation of Leishmania parasites in mouse peritoneal macrophages; format: cell-based, Leishmania donovani; conditions: Leishmania donovani, Peritoneal macrophage
# Outline: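 BALB/c peritoneal macrophages infected 24 h with L. donovani HU3 amastigotes taken from spleens of mice infected 9–11 weeks, then treated with compound for 5 days at 37° C, 5% CO2. Parasite nuclei counted by SYBR Green imaging after fixation; EC50 from percentage inhibition.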
# [2] = test system: Leishmania donovani axenic amastigote parasites; assay: Leishmania donovani axenic amastigote proliferation assay; format: cell-based; conditions: read-out: L. donovani amastigotes EC50
# Outline: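 L. donovani axenic amastigotes (9600/well) in RPMI 1640 with 20% heat-inactivated FBS, folic acid, adenosine, glucose and 25 mM MES, pH 5.5, were incubated with compounds for 2 days at 37 °C, 5% CO2. Viability read by CellTiter-Glo luminescence; EC50 calculated.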
# [3] = read-out: L. donavani Macrophage EC50
SMILES,"EC50 [1, 3] [µM]",EC50 ([2]; axenic amastigotes in vitro) [µM],"EC50 ([1]; 120 h, L. donovani in mouse peritoneal macrophages, 5 days culture, SybrGreen parasite nuclei count, read-out: EC50) [µM]",EC50 ([1]; read-out: L. donavani Macrophage EC50 (μM)) [µM],EC50 [2] [µM]
"C=Cc1cnc2nc(-c3cc(NC(=O)c4ccco4)ccc3Cl)[nH]c2c1 [Example 74, N-(4-chloro-3-{6-ethenyl-1H-imidazo[4,5-b]pyridin-2-yl}phenyl)furan-2-carboxamide]",3.09,0.45,,,
Nc1ccc(-c2cnc3nc(-c4cc(NC(=O)c5ccco5)ccc4Cl)[nH]c3c2)cc1 [Compound 12],0.4,0.258,,,
CN(C)c1ccc(-c2cnc3nc(-c4cc(NC(=O)c5ccco5)ccc4Cl)[nH]c3c2)cc1 [Compound 67],2.5,2.12,,,
O=C(Nc1ccc(Cl)c(-c2nc3ncc(-c4ccc(N5CCCC5)cc4)cc3[nH]2)c1)c1ccco1 [Compound 68],4.9,2.85,,,
CCN(CC)C(=O)Nc1ccc(F)c(-c2nc3ncc(Cl)cc3[nH]2)c1 [Compound 355],> 50,> 25,,,
CC(C)OC(=O)Nc1ccc(Cl)c(-c2nc3ncc(-c4ccccc4NC(=O)CCN)cc3[nH]2)c1 [Compound 342],39.1,> 25,,,
CCOC(=O)Nc1ccc(Cl)c(-c2nc3ncc(C#N)cc3[nH]2)c1 [Compound 289],8.1,4.2,,,
CC(C)Cc1cnc2nc(-c3cc(NC(=O)c4ccco4)ccc3Cl)[nH]c2c1 [Compound 76],> 50,> 25,,,
Cc1cnc2nc(-c3cc(NC(=O)c4ccnnc4)ccc3Cl)[nH]c2c1 [Compound 92],> 50,> 20,,,
O=C(Nc1ccc(Cl)c(-c2nc3ncc(-c4c[nH]cn4)cc3[nH]2)c1)N1CCCC1 [Compound 307],> 50,> 25,,,
COCCOc1ccc(-c2cnc3nc(-c4cc(NC(=O)N5CCCC5)ccc4F)[nH]c3c2)cc1 [Compound 312],3.7,1.75,,,
O=C(Nc1ccc(Cl)c(-c2nc3ncc(Cl)cc3[nH]2)c1)c1ccco1 [Compound 2],4,1.39,,,
CC(C)OC(=O)Nc1ccc(-c2cnc3nc(-c4cc(NC(=O)Nc5ccc(C(F)(F)F)cc5)ccc4F)oc3c2)cc1 [Compound 396],> 50,16.1,,,
COC(=O)Nc1ccc(Cl)c(-c2nc3ncc(C#N)cc3[nH]2)c1 [Compound 290],17.4,15.6,,,
CC(C)(CN)c1ccc(-c2cnc3nc(-c4cc(NC(=O)N5CCCC5)ccc4Cl)[nH]c3c2)cc1 [Compound 304],4.7,9.6,,,
"CC(C)OC(=O)Nc1ccc(Cl)c(-c2nc3ncc(C#N)cc3[nH]2)c1 [Example 287, Propan-2-yl N-(4-chloro-3-{6-cyano-1H-imidazo[4,5-b]pyridin-2-yl}phenyl)carbamate]",0.078,1.44,~0.08,,
CNC(=O)Nc1ccc(-c2cnc3nc(-c4cc(NC(=O)c5ccco5)ccc4Cl)[nH]c3c2)cc1 [Compound 57],> 50,1.83,,,
Cc1cnc2nc(-c3cc(NC(=O)c4ccc(S(C)(=O)=O)nc4)ccc3Cl)[nH]c2c1 [Compound 136],> 50,> 25,,,
O=C(CCN1CCCCC1)Nc1ccc(F)c(-c2nc3ncc(Cl)cc3[nH]2)c1 [Compound 359],> 35.3,> 25,,,
Cc1cnc2nc(-c3cc(NC(=O)c4ccc(F)o4)ccc3Cl)[nH]c2c1 [Compound 90],8,1.88,,,
NS(=O)(=O)c1ccc(-c2cnc3nc(-c4cc(NC(=O)c5ccco5)ccc4Cl)[nH]c3c2)cc1 [Compound 66],> 39.1,4.6,,,
"CCc1cnc2nc(-c3cc(NC(=O)c4ccco4)ccc3Cl)oc2c1 [Example 419, N-(4-chloro-3-{6-ethyl-[1,3]oxazolo[4,5-b]pyridin-2-yl}phenyl)-furan-2-carboxamide]",,0.36,,2.46,
Cc1ncoc1C(=O)Nc1ccc(F)c(-c2nc3ncc(Br)cc3o2)c1 [Compound 409],> 50,7.5,,,
Cc1cnc2nc(-c3cc(NC(=O)c4ccc(OCCN(C)C)cc4)ccc3F)[nH]c2c1 [Compound 269],> 50,> 25,,,
Cc1cnc2nc(-c3cc(NC(=O)CCCN(C)C)ccc3F)[nH]c2c1 [Compound 275],> 50,> 25,,,
COCCOc1ccc(-c2cnc3nc(-c4cc(NC(=O)c5ccco5)ccc4Cl)[nH]c3c2)cc1 [Compound 60],3.5,0.8,,,
"COC(=O)Nc1ccc(-c2cnc3nc(-c4cc(NC(=O)N5CCC(F)(F)C5)ccc4Cl)[nH]c3c2)cc1 [Example 343, Methyl N-[4-(2-{2-chloro-5-[(3,3-difluoropyrrolidin-1-yl)carbonylamino]phenyl}-1H-imidazo [4,5-b]pyridin-6-yl)phenyl]carbamate]",0.51,,,,0.245

SMILES,"EC50 [1, 3] [µM]",EC50 ([2]; axenic amastigotes in vitro) [µM],"EC50 ([1]; 120 h, L. donovani in mouse peritoneal macrophages, 5 days culture, SybrGreen parasite nuclei count, read-out: EC50) [µM]",EC50 ([1]; read-out: L. donavani Macrophage EC50 (μM)) [µM],EC50 [2] [µM]
O=C(Nc1ccc(Cl)c(-c2nc3ncc(-c4ccc(N5CCNCC5)cc4)cc3[nH]2)c1)N1CCCC1 [Compound 294],16.9,> 25,,,
CC(C)OC(=O)Nc1ccc(Cl)c(-c2nc3ncc(-c4ccccc4NC(=O)CN)cc3[nH]2)c1 [Compound 340],9.8,11.7,,,
CNC(=O)c1ccc(-c2cnc3nc(-c4cc(NC(=O)c5ccco5)ccc4Cl)[nH]c3c2)cc1 [Compound 64],> 28.9,0.68,,,
O=C(Nc1ccc(F)c(-c2nc3ncc(-c4ccc(OCCN5CCOCC5)cc4)cc3[nH]2)c1)N1CCCC1 [Compound 295],1.27,2.86,,,
Cc1ccnc2nc(-c3cc(NC(=O)c4ccco4)ccc3Cl)[nH]c12 [Compound 3],> 50,> 25,,,
N#Cc1ccc(C(=O)Nc2ccc(Cl)c(-c3nc4ncc(C(F)(F)F)cc4[nH]3)c2)o1 [Compound 281],6.3,1.98,,,
O=C(Nc1ccc(Cl)c(-c2nc3ncc(-c4cccc(OCCN5CCOCC5)c4)cc3[nH]2)c1)N1CCCC1 [Compound 301],1.05,0.91,,,
O=C(Nc1ccc(F)c(-c2nc3ncc(-c4ccc(OCC5CO5)cc4)cc3[nH]2)c1)N1CCCC1 (centres unmarked) [Compound 310],4.6,1.95,,,
CC(C)OC(=O)Nc1ccc(Cl)c(-c2nc3ncc(C#N)cc3n2C(=O)OC(C)C)c1 [Compound 288],0.13,1.59,,,
CC(C)OC(=O)Nc1ccc(Cl)c(-c2nc3ncc(-c4ccc(NC(=O)CCN)cc4)cc3[nH]2)c1 [Compound 339],1.82,3.7,,,
Cc1cc(-c2cnc3nc(-c4cc(NC(=O)c5ccco5)ccc4Cl)[nH]c3c2)cc(C)n1 [Compound 39],9.6,0.57,,,
COC(=O)Nc1ccc(-c2cnc3nc(-c4cc(NC(=O)Nc5ccc(C(F)(F)F)cc5)ccc4F)oc3c2)cc1 [Compound 402],10,> 24,,,
CN(C)c1ccc(-c2cnc3nc(-c4cc(NC(=O)c5ccco5)ccc4Cl)[nH]c3c2)cn1 [Compound 65],1.58,0.197,,,
CN(C)Cc1ccc(-c2cnc3nc(-c4cc(NC(=O)c5ccco5)ccc4Cl)[nH]c3c2)cc1 [Compound 15],0.72,6.1,,,
O=C(Nc1ccc(Cl)c(-c2nc3ncc(-c4cnn(CCN5CCOCC5)c4)cc3[nH]2)c1)c1ccco1 [Compound 14],3.14,3.7,,,
O=C(Nc1ccc(Cl)c(-c2nc3ncc(C(F)(F)F)cc3[nH]2)c1)c1ccc(F)o1 [Compound 284],4.1,0.7,,,
Cc1n[nH]cc1-c1cnc2nc(-c3cc(NC(=O)Nc4ccc(C(F)(F)F)cc4)ccc3F)oc2c1 [Compound 394],4.8,11.7,,,
O=C(Nc1ccc(C(F)(F)F)cc1)Nc1ccc(F)c(-c2nc3ncc(-c4ccc(N5CCOCC5)cc4)cc3o2)c1 [Compound 392],8.4,> 25,,,
CC(C)OC(=O)Nc1ccc(-c2cnc3nc(-c4cc(NC(=O)OC(C)C)ccc4Cl)[nH]c3c2)cc1 [Compound 337],0.295,0.119,,,
C[C@@H](CO)NCc1cnc2nc(-c3cc(NC(=O)c4ccco4)ccc3Cl)[nH]c2c1 [Compound 38],> 50,> 25,,,
O=C(Nc1ccc(Cl)c(-c2nc3ncc(Br)cc3n2CCN2CCOCC2)c1)N1CCCC1 [Compound 388],> 50,> 25,,,
CC(=O)Nc1ccc(F)c(-c2nc3ncc(C)cc3[nH]2)c1 [Compound 272],> 50,> 25,,,
Cc1cnc2nc(-c3cc(NC(=O)CCN)ccc3F)[nH]c2c1 [Compound 268],> 50,> 25,,,
CC(C)OC(=O)Nc1ccc(Cl)c(-c2nc3ncc(-c4ccccc4N)cc3[nH]2)c1 [Compound 334],0.99,0.26,,,
CC(C)c1nnc(C(=O)Nc2ccc(F)c(-c3nc4ncc(Br)cc4o3)c2)o1 [Compound 406],> 50,> 25,,,
O=C(Nc1ccc(Cl)c(-c2nc3ncc(C(F)(F)F)cc3[nH]2)c1)c1ccccc1Cl [Compound 278],3.8,> 25,,,
